Measurements: US7833991B2, “Amine compound and use thereof” (Kureha Corporation, priority 2002, dated 2010)
Where two headings read alike, the source gives them in different places.

Assays:
[1] = tested on: HIV-1IIIB infected MT-4 cells; test: Antiviral activity in HIV-1IIIB infected MT-4 cells, MTT method (Test Examples 1 and 5); assay type: cell-based
Experimental: Immediately after infection, HIV-1IIIB infected MT-4 cells (3.0×10^4/well, MOI (Multiplicity of infection): 0.01) were added to a 96-well microtiter plate together with the test compounds having different concentrations. The cells were cultured in a carbon dioxide incubator at 37° C. for 5 days, and the number of living cells was measured in accordance with the MTT (tetrazolium) method (Pawels, et al., Journal of Virology Method, 20, 309-321 ([…])). The antiviral activity is represented by the concentration required for inhibition of cell disorder due to HIV by 50% (EC50: 50% Effective Concentration) (μM), and the results are shown in Table 2.
(§1) Compounds of the present invention having various substituted and unsubstituted heterocyclic rings for the substituent A2 of formula (1) were tested for antiviral (anti-HIV) activity as in Test Example 1 and for CXCR4 activity as in Test Example 2. The compounds, various substituents of the compounds, antiviral activity represented by the concentration required for inhibition of all disorder due to HIV injection by 50% (EC50: 50% Effective Concentration, μM), and CXCR4 activity calculated as a rate of inhibition of the binding between radioactive ligands and CXCR4 receptors by a test material (a binding-inhibition % at 0.1 μM) are shown in Table 5: […]

CXCR4 = target: T1, CXCR4 (Homo sapiens, UniProt P61073); test: Inhibition of 125I-SDF-1α binding to receptors CXCR4 on MT-4 cells (Test Examples 2 and 5); settings: binding-inhibition % at 0.1 μM
T1 construct: endogenous in cells; host or cells: MT-4 cells
Experimental: MT-4 cells (5×10^6/0.2 ml/well) were cultured on a 24-well microtiter plate. After the cells were incubated for 24 hours at 37° C. in a carbon dioxide gas incubator, a culture medium was replaced with a buffer solution (0.1% BSA-containing RPMI-1640). Together with a ligand ^125I-SDF-1α, (specific activity: 2,200 Ci/mmol; available from Daiichi Pure Chemicals Co., Ltd. (Tokyo)), test materials with various concentrations were subjected to a binding reaction for 2 hours under ice-cooling. […] Then, a rate of inhibition of the binding between radio-active ligands and receptors CXCR4 by a test material was calculated (a binding-inhibition % at 0.1 μM).
as §1

ICR mice = test: Acute toxicity in mice, single administration via tail vein (Test Example 3); assay type: in vivo; settings: ICR mice (male), 2.5 mg/kg once
Experimental: The aforementioned compound was examined for acute toxicity. Specifically, 7-week-old ICR mice (male) were divided into several groups (4 or 5 mice in each group), and the mice were bred for 1 week for habituation. Subsequently, each of the compounds of Examples was dissolved in distilled water or physiological saline, and the solution was administered to the mice via tail vein (dose: 2.5 mg/kg) once. Then, dead mice were counted.

[2] = Human immunodeficiency virus 1, MT4, 120 h, concentration required for inhibition of cell disorder due to HIV by 50%, MT-4 cells, MOI 0.01, 5 days, MTT method, read-out: EC50
[3] = 125I-SDF-1α, MT-4 cells, 2 hours under ice-cooling, read-out: Inhibition rate (%)
[4] = Human immunodeficiency virus 1, MT4, as in Test Example 1, Table 5, read-out: HIV Activity EC50
[5] = as in Test Example 2, Table 5, read-out: CXCR4 Activity % at 0.1 μM

T1 sequence (P61073 whole entry): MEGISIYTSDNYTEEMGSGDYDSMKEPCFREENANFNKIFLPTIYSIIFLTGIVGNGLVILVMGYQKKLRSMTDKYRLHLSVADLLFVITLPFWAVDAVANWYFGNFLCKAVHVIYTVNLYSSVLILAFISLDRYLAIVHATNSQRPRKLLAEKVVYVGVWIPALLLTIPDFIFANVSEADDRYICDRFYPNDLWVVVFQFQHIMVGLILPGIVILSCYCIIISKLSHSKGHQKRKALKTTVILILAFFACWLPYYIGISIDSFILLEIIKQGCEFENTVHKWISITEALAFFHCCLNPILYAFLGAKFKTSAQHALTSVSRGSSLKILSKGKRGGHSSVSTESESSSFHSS

Structure (SMILES)	EC50 [1, 2] [nM]	inhibition at 0.1 µM (CXCR4; [3]) [%]	Dead mice/test mice (ICR mice)	EC50 [1, 4] [nM]	inhibition at 0.1 µM (CXCR4; [5]) [%]
CCCN(CCC)CCCCNC(=O)c1ccc(CN(Cc2ncc[nH]2)Cc2ncc[nH]2)cc1 [Compound No. 1, 4-{[bis(1H-imidazol-2-ylmethyl)-amino]-methyl}-N-(4-dipropylamino-butyl)-benzamide]	4	100	0/5	–	–
CC(C)CN(CCCCNC(=O)c1ccc(CN(Cc2ncc[nH]2)Cc2ncc[nH]2)cc1)CC(C)C [Compound No. 2, 4-{[bis(1H-imidazol-2-ylmethyl)-amino]-methyl}-N-(4-diisobutylamino-butyl)-benzamide]	3	100	0/5	–	–
NCCCCNC(=O)c1ccc(CN(Cc2ncc[nH]2)Cc2ncc[nH]2)cc1 [Compound No. 3, 4-{[bis(1H-imidazol-2-ylmethyl)-amino]-methyl}-N-(4-aminobutyl)-benzamide]	3	100	0/5	–	–
O=C(NCCCCNCc1ccccc1C(F)(F)F)c1ccc(CN(Cc2ncc[nH]2)Cc2ncc[nH]2)cc1 [Compound No. 11, 4-{[bis(1H-imidazol-2-ylmethyl)-amino]-methyl}-N-[4-(2-trifluoromethyl)-benzylamino-butyl]-benzamide]	23	95	0/5	–	–
O=C(NCCCCNCc1ccccc1OC(F)(F)F)c1ccc(CN(Cc2ncc[nH]2)Cc2ncc[nH]2)cc1 [Compound No. 12, 4-{[bis(1H-imidazol-2-ylmethyl)-amino]-methyl}-N-[4-(2-trifluoromethoxy)-benzylamino-butyl]-benzamide]	49	95	0/5	–	–
CCCN(CCC)Cc1ccc(NC(=O)c2ccc(CN(Cc3ncc[nH]3)Cc3ncc[nH]3)cc2)cc1 [Compound No. 19, 4-{[bis(1H-imidazol-2-ylmethyl)-amino]-methyl}-N-(4-dipropylaminomethylphenyl)-benzamide]	2	100	0/5	–	–
CCCN(CCC)CCCCNCc1ccc(CN(Cc2ncc[nH]2)Cc2ncc[nH]2)cc1 [Compound No. 25, N-(4-{[bis(1H-imidazol-2-ylmethyl)-amino]-methyl}-benzyl)-N′,N′-dipropylbutane-1,4-diamine]	2	100	0/5	–	–
CCCN(CCC)Cc1ccc(NC(=O)c2ccc(CN(Cc3ncc[nH]3)Cc3nccn3C)cc2)cc1 [Compound No. 49, N-(4-dipropylaminomethylphenyl)-4-{[(1H-imidazol-2-ylmethyl)-(1-methyl-1H-imidazol-2-ylmethyl)-amino]-methyl}-benzamide]	2	100	0/5	2	100
CCCN(CCC)Cc1ccc(NC(=O)c2ccc(CN(Cc3ncc[nH]3)Cc3nc4ccccc4[nH]3)cc2)cc1 [Compound No. 61, N-(4-dipropylaminomethylphenyl)-4-{[(1H-imidazol-2-ylmethyl)-(1H-benzimidazol-2-ylmethyl)-amino]-methyl}-benzamide]	2	100	0/5	2	100
CCCN(CCC)CCCCNCc1ccc(CN(Cc2ccc(C)cn2)Cc2ncc[nH]2)cc1 [Compound No. 75, N-(4-{[(1H-imidazol-2-ylmethyl)-(5-methylpyridine-2-ylmethyl)-amino]-methyl}-benzyl)-N′,N′-dipropylbutane-1,4-diamine]	2	100	0/5	–	–
CCCN(CCC)CCCCN(C)Cc1ccc(CN(Cc2ncc[nH]2)Cc2nccn2C)cc1 [Compound No. 98, N-(4-{[(1H-imidazol-2-ylmethyl)-(1-methyl-1H-imidazol-2-ylmethyl)-amino]-methyl}-benzyl)-N-methyl-N′,N′-dipropylbutane-1,4-diamine]	3	100	0/5	–	–
CN(CCCCNS(=O)(=O)c1ccc(CN(Cc2ncc[nH]2)Cc2nccn2C)cc1)C1CCCCC1 [Compound No. 109, N-[4-(cyclohexyl-methyl-amino)-butyl]-4-{[(1H-imidazol-2-ylmethyl)-(1-methyl-1H-imidazol-2-ylmethyl)-amino]-methyl}-benzenesulfonamide]	2	100	0/5	–	–
CCCN(CCC)CCCCN(C)Cc1ccc(CN(Cc2ncc[nH]2)Cc2nnc[nH]2)cc1 [Compound No. 116, N-(4-{[(imidazol-2-ylmethyl)-([1,2,4]-triazol-3-ylmethyl)-amino]-methyl}-benzyl)-N-methyl-N′,N′-dipropylbutane-1,4-diamine]	2	100	0/5	–	–
